Legend:
Format in all cases: cell-based, human
PANK3-GRE = assay: Chromatin immunoprecipitation of PANK3-GRE; conditions: CEM-C7H2
Procedure: The EpiTech ChIP OneDay kit (Qiagen) was employed. IP antibodies used were: Rabbit-IgG (Qiagen), anti-GR (cell signaling) and anti-H3K4me1 (abcam). qRT-PCR was performed by syber green enzyme with the following primers: PANK3-GRE, GAPDH positive control and MYOD1 negative control (Qiagen). GR-GRE primers were planned as follow: Fw-5′ […] 3′ and 5′ […] 3′. % Enrichment was calculated according to the formula: 2̂(CT Mean(Input)−CT Mean of (Interested fraction))*100.

miRNAs = assay: Deep sequencing of small RNAs; conditions: CEM-C7H2, Dex 24 hrs
Procedure: RNA of cell samples was extracted by Tri-reagent. 1 μg of each sample was sequenced on an Illumina Genome Analyzer as described by Son et al, Curr Protoc Microbiol; Chapter 1: Unit 1E 4. Data analysis was performed by a miRNAkey application Ronen et al., Bioinformatics; 26(20):2615-2616.

miR-103 = miR-103 level in patient peripheral blood lymphoblasts after PRED (qRT-PCR)
Procedure: Blood and bone marrow (BM) samples of pediatric acute lymphoblastic leukemia (ALL) and chronic lymphoblastic leukemia (CLL) patients were collected from hospitals for testing, and the treatment and clinical status of these patients cross-checked in a blind manner. The outline of the study was to collect blood samples from ALL patients at diagnosis, incubate the blood with or without PRED overnight and then measure miR-103 expression levels. 11 BMs of ALL patients and 6 BMs of normal pediatric donors were analyzed. Furthermore, peripheral blood samples from 8 pediatric ALL patients and 1 CLL patient were collected. The CLL and 5 ALL samples were treated with PRED in vitro while from the additional 3 ALL patients blood was taken at diagnosis and at day 1 following PRED treatment.
The outline of the study was to collect blood samples from acute lymphoblastic leukemia (ALL) patients at diagnosis, incubate the blood with or without PRED overnight and then measure miR-103 expression levels. 11 BMs of ALL patients and 6 BMs of normal pediatric donors were analyzed. Furthermore, peripheral blood samples from 8 pediatric ALL patients and 1 chronic lymphoblastic leukemia (CLL) patient were collected. The CLL and 5 ALL samples were treated with PRED in vitro while from the additional 3 ALL patients blood was taken at diagnosis and at day 1 following PRED treatment. […]

[1] = system: MOLT-4, CUTLL, BJAB and SUD-136 cells; assay: Apoptosis by PI uptake (flow cytometry), GC-resistant cell lines; conditions: for Conferring GC sensitivity (GCIA) by miRNA transfection: BJAB and MOLT-4 transfected with miRNA overexpression plasmids; for Conferring GC sensitivity (GCIA) by miRNA transfection / miR-103-mediated GCIA after re-expression of miR-17˜92a members: Dex 72 hrs; for miR-103-mediated GCIA after re-expression of miR-17˜92a members: miR-103 overexpressing BJAB
From the text: (§1) Cell lines models of human T-cell acute lymphocytic leukemia (T-ALL) and Burkitt's lymphoma (BL), including the glucocorticoid (GC) sensitive cells represented by CEM-C7H2 (T-ALL, the sensitive sub-clone of CCRF-CEM), LOUCY (T-ALL) and DAUDI (BL), and the GC resistant cells represented by MOLT-4 (T-ALL), CUTLL (T-ALL), BJAB (BL) and SUD-136 (BL) were used. At least three kinds of cells were used in each type of cancer in order to minimize cell type specific variables. In addition, two types of malignancies were examined, T-ALL to represent leukemia behavior and BL to represent lymphoma behavior. Bone marrow cells were collected from normal donors and ALL patients. All experiments with human cells were approved by an institutional Helsinki committee and the Ministry of Health. Dexamethasone (DEX), RU486, Propidium iodide (PI), puromycin and Tri-reagent were purchased from sigma and TransIT-LT1 from Mirus.
(§2) Cells were treated with 100 nM Dex for 72 hrs. Percent apoptotic cells was determined by PI-uptake as measured in a FACS Calibur flow cytometer (BD).

GR = GR expression (western blot / mRNA RQ)
Procedure: (§3) Total lysate of 10^6 cells was prepared in 50 μl protein sample buffer (PSB) ×1.5. The following antibodies were used for immuno-blotting: anti-β-Catenin and anti-GR (BD Transduction Laboratories); anti-BIM (Calbichem); anti-CDK2, anti-c-Myb, anti-DVL1 and anti-c-Myc (Santa Cruz Biotechnology); anti-cycline E1 (Cell Signaling Technology); and anti-a-Tubulin (Sigma). Immune-blots images are presented by Image Lab 3.0 software. Specific bands were cropped by transferring images to Adobe Photoshop CS5.
(§4) Total RNA was isolated using miRNeasy mini kit (QIAGEN). For Syber green assay, precipitated RNA samples were treated with Poly A Tailing kit (Ambion). c-DNA was prepared by M-MLV reverse transcriptase (Invitrogen). q-PCR amplification of mRNA was operated by Platinum SYBER Green (Invitrogen) with the following primers: FKBP5 5′ […] 3′ and 5′ GTCTCCAATCATCGGCGTT 3′, SGK1 5′ […] 3′ and 5′ […] 3′. For Taqman based PCR, c-DNA was prepared by Taqman MicroRNA Reverse Transcription Kit (Applied Biosystem). q-PCR was performed using TaqMan 2× Universal PCR Master Mix (Applied Biosystem).

BIM = BIM expression (western blot / mRNA RQ)
Procedure: as §3, §4

[2] = system: CEM-C7H2, LOUCY and DAUDI cells; assay: Apoptosis by PI uptake (flow cytometry), GC-sensitive cell lines; conditions: LOUCY overexpressing miR-103, Dex-treated
From the text: as §1, §2

BJAB cells = assay: Total cell number / viability by flow cytometry; conditions: miR-103 overexpressing BJAB
Procedure: FIGS. 6A-E: miR-103 inhibits cellular proliferation. (A) Relative Quantification of miR-103 in BM cells of […]. (B) CEM-C7H2, BJAB and miR-103 overexpressing BJAB cells were treated with Dex (24 hrs), labeled with BRDU (1 hr), fixed and analyzed by flow cytometry. (C) miR-103 overexpressing BJAB, SUD-136, DAUDI and MOLT-4 cells were treated with Dex for 72 hrs. Cellular proliferation was measured by BRDU staining. (D) miR-103 overexpressing BJAB cells were treated with Dex and/or RU486 for 72 hrs. Cell viability was determined by flow cytometry. (E) miR-103 overexpression or sponged cells were treated with Dex and then subjected to western blot analysis using anti Cyclin E1 and CDK2 antibodies. C=Untreated, D=Dex-treated.

cycline E1 and CDK2 = assay: Cycline E1 and CDK2 expression (western blot / RQ); conditions: miR-103 overexpressing cells
Procedure: as §3, §4

c-Myc = c-Myc expression (western blot / RQ); conditions: miR-103 overexpressing cells; further downregulated following Dex
Procedure: as §3, §4

[3] = system: CEM-C7H2, BJAB, SUD-136, DAUDI and MOLT-4 cells; assay: BRDU incorporation cellular proliferation assay; conditions: miR-103 overexpressing cells, no Dex
From the text: A BrdU Cell Proliferation Assay kit (Exalpha Biological, Inc) or a BrdU Flow Kit (BD Pharmingen) were used to determine cellular proliferation.

DVL1 and β-Catenin = DVL1 and β-Catenin expression (western blot)
Procedure: as §3

c-Myb = c-Myb expression (western blot); conditions: CEM-C7H2 and MOLT-4 T-ALL cells
Procedure: as §3

miR-17˜92a = assay: miR-17~92a cluster expression (RQ / fold change); conditions: resistant BJAB
Procedure: RNA of cell samples was extracted by Tri-reagent. 1 μg of each sample was sequenced on an Illumina Genome Analyzer as described by Son et al, Curr Protoc Microbiol; Chapter 1: Unit 1E 4.
Total RNA was isolated using miRNeasy mini kit (QIAGEN). For Syber green assay, precipitated RNA samples were treated with Poly A Tailing kit (Ambion). c-DNA was prepared by M-MLV reverse transcriptase (Invitrogen). q-PCR amplification of mRNA was operated by Platinum SYBER Green (Invitrogen) with the following primers: FKBP5 5′ […] 3′ and 5′ […] 3′, SGK1 5′ […] 3′ and 5′ […] 3′. For Taqman based PCR, c-DNA was prepared by Taqman MicroRNA Reverse Transcription Kit (Applied Biosystem). q-PCR was performed using TaqMan 2× Universal PCR Master Mix (Applied Biosystem).

## C[C@@H]1C[C@H]2[C@@H]3CCC4=CC(=O)C=C[C@]4(C)[C@@]3(F)[C@@H](O)C[C@]2(C)[C@@]1(O)C(=O)CO [Dex, Dexamethasone]
PANK3-GRE
  PANK3-GRE enrichment, anti-GR antibody, Dex-treated compared with untreated: approximately 5%
miRNAs
  Number of miRNAs most significantly modulated by Dex: 22

## C[C@]12C=CC(=O)C=C1CC[C@@H]1[C@@H]2C(=O)C[C@@]2(C)[C@H]1CC[C@]2(O)C(=O)CO [PRED, prednisone]
miR-103; PRED good responders (PGR) ALL patients
  miR-103 level in peripheral malignant lymphoblasts after PRED: upregulated
miR-103; prednisone poor response (PPR) ALL patients
  miR-103 level in peripheral malignant lymphoblasts after PRED: downregulated

## miR-15b: human miRNA, SEQ ID NO: 4, overexpression plasmid (UAGCAGCACAUCAUGGUUUACA; listed as Homo sapiens)
[1]
  Conferring GC sensitivity (GCIA) by miRNA transfection: sensitized

## miR-16: human miRNA, SEQ ID NO: 5, overexpression plasmid (UAGCAGCACGUAAAUAUUGGCG; listed as Homo sapiens)
[1]
  Conferring GC sensitivity (GCIA) by miRNA transfection: sensitized

## miR-18a: human miRNA of miR-17˜92a, SEQ ID NO: 19, re-expressed from plasmid (UAAGGUGCAUCUAGUGCAGAUAG; listed as Homo sapiens) [reference compound]
[1]
  miR-103-mediated GCIA after re-expression of miR-17˜92a members: counteracted the miR-103-mediated GCIA
GR; miR-103 transfected cells transfected with miR-18a
  miR-103-mediated GR upregulation after restoring miR-18a: inhibition of the GR upregulation mediated by miR-103

## miR-20a: human miRNA of miR-17˜92a, SEQ ID NO: 14, re-expressed from plasmid (UAAAGUGCUUAUAGUGCAGGUAG; listed as Homo sapiens) [reference compound]
[1]
  miR-103-mediated GCIA after re-expression of miR-17˜92a members: counteracted the miR-103-mediated GCIA
BIM; miR-103 overexpressing BJAB transfected with miR-20a
  BIM level after restoring miR-20a: re-suppressed

## miR-30d: human miRNA, SEQ ID NO: 3, overexpression plasmid (UGUAAACAUCCCCGACUGGAAG; listed as Homo sapiens)
[1]
  Conferring GC sensitivity (GCIA) by miRNA transfection: sensitized

## miR-30e: human miRNA, SEQ ID NO: 2, overexpression plasmid (UGUAAACAUCCUUGACUGGAAG; listed as Homo sapiens)
[1]
  Conferring GC sensitivity (GCIA) by miRNA transfection: sensitized

## miR-103: human miRNA, SEQ ID NO: 1 AGCAGCAUUGUACAGGGCUAUGA, expressed from overexpression plasmid (Table 3) (listed as Homo sapiens)
[2]
  GC induced apoptosis (GCIA) in miR-103 overexpressing cells: became hyper-sensitive to GCIA
BJAB cells
  Total cell number in the culture: reduced the total cell number
Cycline E1 and CDK2
  Cycline E1 and CDK2 expression on miR-103 overexpression: downregulated
c-Myc
  c-Myc expression on miR-103 overexpression: reduced
[3]
  Cell proliferation (BRDU) by miR-103 itself: significantly reduced cell proliferation
[1]
  Conferring GC sensitivity (GCIA) by miRNA transfection: particularly effective in conferring GC sensitivity
[1]; MOLT-4, CUTLL, BJAB, SUD136 overexpressing miR-103, Dex-treated
  Apoptosis of miR-103 overexpressing resistant cells with Dex: underwent significant apoptosis
[1]; untreated cells
  Apoptosis on miR-103 overexpression without Dex: only a minor effect on apoptosis
DVL1 and β-Catenin; Burkitt's lymphoma cells
  DVL1 and β-Catenin on miR-103 overexpression: downregulated
DVL1 and β-Catenin; CEM-C7H2
  DVL1 expression on miR-103 overexpression: even upregulated
  β-Catenin level on miR-103 overexpression: unaffected
DVL1 and β-Catenin; MOLT4
  β-Catenin level on miR-103 overexpression: even upregulated
c-Myb
  c-Myb expression on miR-103 overexpression: downregulates
BIM; protein and mRNA, augmented by Dex
  BIM expression on miR-103 overexpression: induced BIM upregulation both at the protein and mRNA levels
miR-17˜92a
  miR-17˜92a expression on miR-103 overexpression: reduced expression
GR; miR-103 overexpressing cells
  GR protein and mRNA on miR-103 overexpression: both GR protein and mRNA upregulation

— patent US20170198354A1, “METHODS OF GLUCOCORTICOID THERAPY AND DETERMINING RESPONSIVENESS THEREOF” (YISSUM RESEARCH DEVELOPMENT COMPANY OF THE HEBREW …, priority 2014, published 2017)
